Measurements reported in patent publication US11498920B2, “4-(1H-imidazol-5-yl)-1H-pyrrolo[2, 3-b] pyridines for use in the treatment of leukaemias, lymphomas and solid tumors” (MASARYKOVA UNIVERZITA, priority 2018, dated 2022).
“Also recorded” adds a separate entry of the source. Like-named read-outs stand apart in the source and are kept apart here.

How the values were obtained:
[1] = test system: primary CLL cells; test: Cytotoxicity, TMRE flow cytometry viability, primary CLL cells (Example II.1); assay type: cell-based; conditions: Homo sapiens, CLL cell, 6 hours, TMRE positive cells normalized to control, ratio to PF670462, <1 = higher cytotoxicity than PF670462, read-out: Viability of cells, Compound of formula I (100 μM), relative to PF670462 (100 μM), CLL primary cells
[2] = test system: PC3; test: Cytotoxicity on panel of cell lines, TMRE viability (Example II.2); assay type: cell-based; conditions: Homo sapiens, PC-3, 24 hours, mean, control = 1, read-out: cell viability relative to control, PC3 (prostate cancer)
Summary of the method: (§1)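 Cells seeded at 10^5 per well, exposed to inhibitor at 30 μM or DMSO vehicle for 24 h under standard culture conditions (37 °C, 5% CO2). Viability read by TMRE and expressed as mean ratio to solvent control (<1 indicates lower viability); technical duplicates, 2–3 biological repeats.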

[3] = test system: PANC1; test: as above; assay type: cell-based; conditions: Homo sapiens, PANC-1, 24 hours, mean, control = 1, read-out: cell viability relative to control, PANC1 (pancreatic cancer)
Summary of the method: as §1

[4] = test system: A375; test: as above; assay type: cell-based; conditions: Homo sapiens, A-375, 24 hours, mean, control = 1, read-out: cell viability relative to control, A375 (melanoma)
Summary of the method: as §1

[5] = test system: MDA-MB-231; test: as above; assay type: cell-based; conditions: Homo sapiens, 24 hours, mean, control = 1, read-out: cell viability relative to control, MDA-MB-231 (breast cancer)
Summary of the method: as §1

[6] = test system: K562; test: as above; assay type: cell-based; conditions: Homo sapiens, 24 hours, mean, control = 1, read-out: cell viability relative to control, K562 (CML)
Summary of the method: as §1

[7] = test system: Mino; test: as above; assay type: cell-based; conditions: Homo sapiens, 24 hours, mean, control = 1, read-out: cell viability relative to control, Mino (MCL)
Summary of the method: as §1

[8] = test system: BL-41; test: as above; assay type: cell-based; conditions: Homo sapiens, 24 hours, mean, control = 1, read-out: cell viability relative to control, BL-41 (BL)
Summary of the method: as §1

[9] = test system: MEC-1; test: as above; assay type: cell-based; conditions: Homo sapiens, MEC1, 24 hours, mean, control = 1, read-out: cell viability relative to control, MEC-1 (CLL)
Summary of the method: as §1

[10] = test system: MCF-7; test: as above; assay type: cell-based; conditions: Homo sapiens, MCF7, 24 hours, mean, control = 1, read-out: cell viability relative to control, MCF-7 (breast cancer)
Summary of the method: as §1

[11] = test system: Maver1; test: as above; assay type: cell-based; conditions: Homo sapiens, 24 hours, mean, control = 1, read-out: cell viability relative to control, Maver1 (MCL)
Summary of the method: as §1

[12] = test system: primary CLL; test: as above; assay type: cell-based; conditions: Homo sapiens, 24 hours, mean, control = 1, read-out: cell viability relative to control, primary CLL
[13] = test system: SUDHL; test: as above; assay type: cell-based; conditions: 24 hours, mean, control = 1, read-out: cell viability relative to control, SUDHL (DLBCL)
Summary of the method: as §1

[14] = test system: HEPG2; test: as above; assay type: cell-based; conditions: Homo sapiens, 24 hours, mean, control = 1, read-out: cell viability relative to control, HEPG2 (hepatocellular carcinoma)
Summary of the method: as §1

[15] = test system: OVCAR4; test: as above; assay type: cell-based; conditions: Homo sapiens, OVCAR-4, 24 hours, mean, control = 1, read-out: cell viability relative to control, OVCAR4 (ovarian cancer)
Summary of the method: as §1

[16] = test system: MIA-PA-CA; test: as above; assay type: cell-based; conditions: Homo sapiens, MIA PaCa-2, 24 hours, mean, control = 1, read-out: cell viability relative to control, MIA-PA-CA (pancreatic cancer)
Summary of the method: as §1

[17] = test system: HL60; test: as above; assay type: cell-based; conditions: Homo sapiens, HL-60, 24 hours, mean, control = 1, read-out: cell viability relative to control, HL60 (AML)
Summary of the method: as §1

[18] = test system: Nalm16; test: as above; assay type: cell-based; conditions: 24 hours, mean, control = 1, read-out: cell viability relative to control, Nalm16 (ALL)
Summary of the method: as §1

[19] = test system: WSU-NHL; test: as above; assay type: cell-based; conditions: Homo sapiens, 24 hours, mean, control = 1, read-out: cell viability relative to control, WSU-NHL (FL)
Summary of the method: as §1

[20] = Specificity of cytotoxic activity, TMRE viability, primary nonmalignant control cells (Example II.4); assay type: cell-based; conditions: human, N = 4, read-out: Viability - mean % of control, Primary healthy cells
[21] = test system: primary CLL cells; conditions: human, 6 h, 30 µM
[22] = test system: Maver-1 cells (mantle cell lymphoma); test: Cytotoxicity, TMRE flow cytometry viability, Maver-1 cells (Example II.1); assay type: cell-based; conditions: Homo sapiens, Maver1, 24 hours, TMRE positive cells normalized to control, ratio to PF670462, <1 = higher cytotoxicity than PF670462, read-out: Viability of cells, Compound of formula I (100 μM), relative to PF670462 (100 μM), Maver-1 cells (mantle cell lymphoma)
[23] = test system: primary CLL cells; test: Specificity of cytotoxic activity, TMRE viability, primary CLL cells (Example II.4); conditions: for dose-dependent cytotoxic effect / apoptosis of primary CLL cells (FIG. 1): 6 h, indicated doses of inhibitors; for selective toxicity towards cancer cells vs nonmalignant controls (FIG. 4, Table 3): primary CLL cells vs healthy cells
[24] = test system: primary CLL cells; test: Induction of apoptosis, western blotting of cleaved PARP in primary CLL cells; assay type: cell-based, human; conditions: 10 μM, overnight, listed as preparatory example 3

Structure (SMILES) | viability at 100 µM [1] [%] | viability at 30 µM [3] [%] | viability at 30 µM [4] [%] | viability at 30 µM [5] [%] | viability at 30 µM [6] [%] | viability at 30 µM [7] [%] | viability at 30 µM [8] [%] | viability at 30 µM [9] [%] | viability at 30 µM [10] [%] | viability at 30 µM [11] [%] | viability at 30 µM [12] [%] | viability at 30 µM [13] [%] | viability at 30 µM [14] [%] | viability at 30 µM [15] [%] | viability at 30 µM [16] [%] | viability at 30 µM [17] [%] | viability at 30 µM [18] [%] | viability at 6 h, 30 µM [20] [%] | viability at 100 µM [22] [%] | other results
Nc1nccc(-c2c(-c3ccc(F)cc3)ncn2C2CCCCC2)n1 [PF670462, reference compound] | 100 | 93 | 94 | 99 | 97 | 84 | 82 | 92 | 55 | 85 | 103 | 93 | 78 | 95 | 104 | 98 | 94 | 95.5 | 100 | viability at 30 µM [2]: 115%; viability at 30 µM [19]: 110%; Viability - mean % of control, Primary CLL [21]: 98.3% (N = 8); induction of apoptosis in primary CLL cells or nonmalignant control (healthy) cells ([23]; 30 μM, 6 hours): not able to induce apoptosis; dose-dependent cytotoxic effect / apoptosis of primary CLL cells (FIG. 1) [23]: lacks this effect
Fc1ccc(-c2ncn(C3CCCCC3)c2-c2ccnc3[nH]ccc23)cc1 [Preparative Example 3, 4-(1-cyclohexyl-4-(4-fluorophenyl)-1H-imidazol-5-yl)-1H-pyrrolo[2,3-b]pyridine] | 30 | 65 | 64 | 69 | 81 | 38 | 17 | 43 | 53 | 54 | 69 | 18 | 47 | 73 | 61 | 72 | 32 | 80.9 | 27 | cleaved PARP, marker of apoptosis (FIG. 2) [24]: Increased PARP cleavage; also recorded: increase of cleaved PARP; Viability - mean % of control, Primary CLL ([23]; 30 μM, 6 hours, N = 8): 37.3% (N = 8); selective toxicity towards cancer cells vs nonmalignant controls (FIG. 4, Table 3) ([23]; 30 μM, 6 hours): significantly higher cytotoxic effects towards cancer cells than nonmalignant controls; selective toxicity towards cancer cells vs nonmalignant controls (FIG. 4, Table 3) ([23]; 30 μM, 6 hours, listed as prep. example 3): selective towards cancer cells; dose-dependent cytotoxic effect / apoptosis of primary CLL cells (FIG. 1) ([23]; listed as preparatory example 3): induced dose-dependently
